In data set [1] the test system is maximal electroshock seizure (MES) in mice. The data set can be described thus: Maximal electroshock seizure (MES) test, mice, i.p. It counts as in vivo, mouse (male Carworth Farms #1). As to conditions: for P.I. (protective index, TD50/ED50): MES; for ED50: MES test. The source says:
The (+) AAP enantiomers obtained by optical resolution of racemic AAPs and the resulting highly orally effective anticonvulsant compositions of this invention are useful in the treatment of convulsive disorders. […] A series of (+) AAP enantiomers and (-) AAP enantiomers of this invention has been evaluated for anticonvulsant activity by the intraperitoneal (i.p.) and by the oral (p.o.) route using two standard seizure models in the mouse and in the rat, the maximal electroshock seizure (MES) test and the subcutaneous pentylenetetrazol (Metrazole) seizure threshold (scMet) test. […] The following Table 2 presents the results of these anticonvulsant tests with respect to several (+) and (-) AAP enantiomeric compounds derived from optical resolution of racemic AAPs of the present invention. This Table 2 identifies the specific compounds tested by their chemical name and provides the test model, the route of administration, the animal species used, and the anticonvulsant activity and toxicity in terms of ED50 and TD50 values, (the median effective and toxic dose respectively), when intraperitoneally administered to mice, and when orally administered to rats. In mice, i.p.: All compounds are emulsified in 0.5% methylcellulose. The solvent has been tested for anticonvulsant and toxic effects and found to introduce no significant bias into the testing of anticonvulsant activity. The compounds are administered intraperitoneally in a volume of 0.01 ml/gm to male Carworth Farms #1 mice weighing about 20 gm. All compounds are tested at least at three dose levels (30, 100 and 300 mg/kg) at 30 minutes and 4 hours after their administration. The Maximal Electroshock Seizure Test (MES): Maximal electroshock seizures are elicited with a 60 Hz alternating current of 50 mA intensity in mice and about 150 mA intensity in rats (5-7 times that necessary to elicit minimal electroshock seizures), delivered for 0.2 sec via corneal electrodes. A drop of 0.9% saline is instilled in the eye prior to application of the electrodes in order to […]. Abolition of the hind limb tonic extension component of the seizure is defined as protection and results are expressed as number of animals protected/number of animals tested. The Subcutaneous Pentylenetetrazol (Metrazole) Seizure Threshold Test (scMet): A 0.5% solution of 85 mg/kg of pentylenetetrazol is administered subcutaneously in the posterior midline 30 minutes or 4 hours after drug administration to the animal. […] Anticonvulsant Quantification in Mice i.p.: The ED50 values are determined in the MES, scMet and rotorod ataxia test. To determine the ED50 values, five logarithmically spaced doses of the test compound are administered to animals (male Carworth Farms #1 mice) in groups of eight, to cover 0-100% protection, and the dose required to protect 50% of the animals (ED50) together with its 95% confidence limits, is determined graphically.

Data set [2] concerns maximal electroshock seizure (MES) in rats. The data set can be described thus: Maximal electroshock seizure (MES) test, rats, p.o. It counts as in vivo, rat (Sprague-Dawley). Particulars: p.o.; for ED50: Rattus norvegicus, po, MES test, read-out: ED50; for % protection (lowest and highest) during 4 hour period / P.I. (protective index, TD50/ED50): rat, MES; for % protection (lowest and highest) during 4 hour period: 30 mg/kg, 5 time points 0.25-4 hours, 4 rats per point. From the text: The (+) AAP enantiomers obtained by optical resolution of racemic AAPs and the resulting highly orally effective anticonvulsant compositions of this invention are useful in the treatment of convulsive disorders. […] A series of (+) AAP enantiomers and (-) AAP enantiomers of this invention has been evaluated for anticonvulsant activity by the intraperitoneal (i.p.) and by the oral (p.o.) route using two standard seizure models in the mouse and in the rat, the maximal electroshock seizure (MES) test and the subcutaneous pentylenetetrazol (Metrazole) seizure threshold (scMet) test. […] The following Table 2 presents the results of these anticonvulsant tests with respect to several (+) and (-) AAP enantiomeric compounds derived from optical resolution of racemic AAPs of the present invention. This Table 2 identifies the specific compounds tested by their chemical name and provides the test model, the route of administration, the animal species used, and the anticonvulsant activity and toxicity in terms of ED50 and TD50 values, (the median effective and toxic dose respectively), when intraperitoneally administered to mice, and when orally administered to rats. The Maximal Electroshock Seizure Test (MES): Maximal electroshock seizures are elicited with a 60 Hz alternating current of 50 mA intensity in mice and about 150 mA intensity in rats (5-7 times that necessary to elicit minimal electroshock seizures), delivered for 0.2 sec via corneal electrodes. A drop of 0.9% saline is instilled in the eye prior to application of the electrodes in order to […]. Abolition of the hind limb tonic extension component of the seizure is defined as protection and results are expressed as number of animals protected/number of animals tested. The Subcutaneous Pentylenetetrazol (Metrazole) Seizure Threshold Test (scMet): A 0.5% solution of 85 mg/kg of pentylenetetrazol is administered subcutaneously in the posterior midline 30 minutes or 4 hours after drug administration to the animal. […] This species will be the subject of the complete anticonvulsant quantification test evaluation as described above, but after oral (gavage) administration of the candidate compound.

The nature of data set [3]: Neurological deficit, positional sense test and gait and stance test, rats, p.o. Set-up: species or system rat (Sprague-Dawley). As to conditions: rat, in vivo, po. On the procedure: Neurotoxicity is determined by the rotorod ataxia test in mice and by the positional sense test and gait and stance test in the rat. The following Table 2 presents the results of these anticonvulsant tests with respect to several (+) and (-) AAP enantiomeric compounds derived from optical resolution of racemic AAPs of the present invention. This Table 2 identifies the specific compounds tested by their chemical name and provides the test model, the route of administration, the animal species used, and the anticonvulsant activity and toxicity in terms of ED50 and TD50 values, (the median effective and toxic dose respectively), when intraperitoneally administered to mice, and when orally administered to rats. […] This species will be the subject of the complete anticonvulsant quantification test evaluation as described above, but after oral (gavage) administration of the candidate compound. […] Neurological deficit in rats is examined by the positional sense test and gait and stance test. […] Inability to do so rapidly indicates a neurologic deficit. In the gait and stance test, a neurologic deficit is indicated by a circular or a zigzag gait, ataxia, abnormal spread of the legs, abnormal body posture, tremor, hyperactivity, lack of exploratory behavior, somnolence, stupor, or catalepsy.

Data set [4] is described as follows: Neurotoxicity, rotorod ataxia test, mice, i.p. More on the design: species or system mouse (male Carworth Farms #1). As to conditions: mouse, in vivo, ip, TD50. On the procedure:
(§1) Neurotoxicity is determined by the rotorod ataxia test in mice and by the positional sense test and gait and stance test in the rat. The following Table 2 presents the results of these anticonvulsant tests with respect to several (+) and (-) AAP enantiomeric compounds derived from optical resolution of racemic AAPs of the present invention. This Table 2 identifies the specific compounds tested by their chemical name and provides the test model, the route of administration, the animal species used, and the anticonvulsant activity and toxicity in terms of ED50 and TD50 values, (the median effective and toxic dose respectively), when intraperitoneally administered to mice, and when orally administered to rats. In mice, i.p.: All compounds are emulsified in 0.5% methylcellulose. The solvent has been tested for anticonvulsant and toxic effects and found to introduce no significant bias into the testing of anticonvulsant activity. The compounds are administered intraperitoneally in a volume of 0.01 ml/gm to male Carworth Farms #1 mice weighing about 20 gm. All compounds are tested at least at three dose levels (30, 100 and 300 mg/kg) at 30 minutes and 4 hours after their administration. Neurotoxicity is evaluated in mice by the rotorod ataxia test. The animal is placed on a wooden rod of 1 and 1/8 diameter rotating at 6 rpm. Normal mice can remain on a rod rotating at this speed indefinitely. […] Anticonvulsant Quantification in Mice i.p.: The ED50 values are determined in the MES, scMet and rotorod ataxia test. To determine the ED50 values, five logarithmically spaced doses of the test compound are administered to animals (male Carworth Farms #1 mice) in groups of eight, to cover 0-100% protection, and the dose required to protect 50% of the animals (ED50) together with its 95% confidence limits, is determined graphically.

Data set [5] relates to neurotoxicity (rotorod ataxia) in mice. The data set can be described thus: Neurotoxicity, rotorod ataxia test, mice, i.p. Set-up: species or system mouse (male Carworth Farms #1). As to conditions: mouse, in vivo, ip. On the procedure: as §1
The test system of data set [6] is maximal electroshock seizure (MES) in mice. As to conditions: mouse, in vivo; cited from earlier work.
Data set [7] relates to pentylenetetrazol (Metrazole) seizure threshold in mice. As to conditions: cited from earlier work; for amounts of PTZ required to produce the endpoints (in words): mouse, in vivo.
Setting [8] is: Mus musculus, ip, read-out: ED50.

Where two headings read alike, the source gives them in different places.

On to `CC(Nc1ccc(Cl)c(Cl)c1)c1ccncc1` (single isomer, unassigned; (+)) [Compound 5, (+) N-(3,4-Dichlorophenyl)-1-(4-pyridyl)ethylamine], for which the results for the “P.I. (protective index, TD50/ED50)” value in data set [1] (listed as (3) (+) Enantiomer) and in data set [2] were above 6.6 and above 15.5, respectively. Moreover, the ED50 in data set [1] (setting [8]) worked out at 76.1 mg/kg; in data set [2], 32.3 mg/kg. Further, the “% protection (lowest and highest) during 4 hour period” value (shortened to “% protection”) in data set [2] (listed as (3) (+) Enantiomer) is given as 0-100%. For the same molecule, the TD50 in data set [3] and in data set [4] was above 500 mg/kg throughout.
In the case of `CCC(Nc1ccc(Cl)cc1)c1ccncc1` (single isomer, unassigned; (+)) [Compound 7, (+) N-(4-Chlorophenyl)-1-(4-pyridyl)propylamine], in data set [1] (listed as (4) (+) Enantiomer), the “P.I. (protective index, TD50/ED50)” value came out at 2.9. In addition, the ED50 in data set [1] (setting [8]) stood at 109 mg/kg. Further, in data set [2] (listed as (4) (+) Enantiomer), the “% protection” value is recorded as 0-75%. This molecule also came in with a TD50 in data set [4] of 322 mg/kg.
Take `CCC(Nc1ccc(Cl)c(Cl)c1)c1ccncc1` (single isomer, unassigned; (+)) [Compound 9, (+) N-(3,4-Dichlorophenyl)-1-(4-pyridyl)propylamine]: in data set [1] (listed as (5) (+) Enantiomer), the “P.I. (protective index, TD50/ED50)” value is recorded as 3.0. Moreover, in data set [1] (setting [8]), the ED50 was 91.9 mg/kg. The “% protection” value in data set [2] (listed as (5) (+) Enantiomer) was 0-75%. In data set [4], this molecule displayed a TD50 of 279 mg/kg.
For the molecule `CC(Nc1ccc(Br)cc1)c1ccncc1` (single isomer, unassigned; (+)) [Compound 11, (+) N-(4-Bromophenyl)-1-(4-pyridyl)ethylamine], the ED50 in data set [1] (listed as (6) (+) Enantiomer) amounted to 34.7 mg/kg; in data set [2], 9.3 mg/kg. For the same molecule, the figures for the “P.I. (protective index, TD50/ED50)” value in data set [1] (listed as (6) (+) Enantiomer) and in data set [2] were 3.9 and above 53.7, respectively. Further, the results for the TD50 in data set [3] and in data set [5] were above 500 mg/kg and 133.9 mg/kg, respectively.
For the molecule `Cc1cccc(C)c1OCC(C)N` (centres unmarked) [Mexiletine], in data set [6], the “MES test activity (in words)” value was “potent in the MES test”. Also, the “seizure threshold (in words)” value in data set [7] (doses slightly above the MES ED50 in mice) is recorded as “lowers seizure threshold at doses slightly above the MES ED50 in mice”.
In the case of `CCC1(C)CC(=O)NC1=O` (centres unmarked) [ethosuximide], in data set [7], the “amounts of PTZ required to produce the endpoints (in words)” value (from here on “amounts of PTZ required”) is recorded as “increase the amounts of PTZ required to produce the above endpoints”.
For `CCC1(c2ccccc2)C(=O)NC(=O)NC1=O` [phenobarbital], the “amounts of PTZ required” value in data set [7] was “increase the amounts of PTZ required to produce the above endpoints”.
Regarding `CCCC(CCC)C(=O)O` [valproic acid], in data set [7], the “amounts of PTZ required” value is on record as “increase the amounts of PTZ required to produce the above endpoints”.

These data come from US6083964A, “Optical resolution of racemic aminoalkylpyridine anticonvulsants and (+) aminoalkylpyridine enantiomers as highly potent orally effective anticonvulsant drugs and excitatory amino acid antagonists” (K and K Biosciences, Inc., priority 1999, dated 2000).
